In PMC9863716, “The Sequence Characteristics and Binding Properties of the Odorant-Binding Protein 2 of Euplatypus parallelus to Semiochemicals” (International Journal of Molecular Sciences, 2023):

Legend:
EparOBP2 [1] = test: Fluorescence competitive binding assay (displacement of 1-NPN); design: species or system Euplatypus parallelus; conditions: 2 μM protein, 50 mM Tris-HCl pH 7.4; for Ki: Ki = IC50/(1 + [1-NPN]/K1-NPN); for IC50: ligand concentration displacing 50% of 1-NPN
Method: (§1) Nine semiochemicals related to the life activities of E. parallelus were used as candidate ligands. The binding capacities of EpraOBP2 were evaluated using an F-7000 fluorescence spectrometer (Hitachi, Tokyo, Japan). The fluorescent reporter N-phenyl-1-naphthylamine (1-NPN) was dissolved in chromatographic methanol at a concentration of 1 mM. The purified EparOBP2 was dissolved in 50 mM Tris-HCl (pH 7.4) at a final concentration of 2 μM. The fluorescence spectra were scanned between 360 and 650 nm. […] Prism 8 (GraphPad Software, San Diego, CA, USA) was used to calculate the dissociation constant of 1-NPN (K1-NPN).
To calculate the binding ability of EparOBP2 with semiochemicals, different odor compounds were used to replace the 1-NPN from the EparOBP2/1-NPN complex. The odor ligands were dissolved in chromatographic methanol at a concentration of 1 mM and added as aliquots to the protein solution. The spectral results were obtained, and the dissociation constants of the competitors were calculated with the formula Ki = IC50/(1 + [1-NPN]/K1-NPN), where 1-NPN represents the free concentration of 1-NPN, while IC50 represents the ligand concentration displacing 50% of the fluorescent reporter.

rubber bark beetles = test system: rubber bark beetles; design: method as in ref 16, 17 = [16]; 16. Shore T. McLean J. Attraction of Platypus wilsoni Swaine (Coleoptera: Platipodidae) to traps baited with sulcatol, ethanol and alpha-pinene Can. For. Serv. Res. Notes 1983 3 24 25 || [17]; 17. Chen Q. Liang X. Wu C. Chen Q. Zhang Z. Trapping effects of 12 aggregation pheromones on rubber bark beetles Chin. J. Trop. Crops 2019 40 2432 2439; conditions: trapping experiments; cited from earlier work
E. parallelus = test system: E. parallelus; design: method as in ref 7, 15 = [7]; 7. Zhou X. Guo J. Yin T. Gan W. Bai C. Xu F. Yang S. Research progress on rubber bark beetles and trapping control technology in China Chin. J. Trop. Crops 2021 42 3049 3054 || [15]; 15. Xu F. Research of Volatile Compounds of Rubber Tree and Its Behavioral Activities on Two Species of Bark Beetles Hainan University Haikou, China 2019 20 24; conditions: cited from earlier work
EparOBP2 [2] = test: Titration of EparOBP2 with fluorescent probe 1-NPN (saturation and Scatchard plot); assay type: binding, Euplatypus parallelus; conditions: 2 μM protein titrated with 2 to 20 μM 1-NPN, pH 7.4; read-out: K1-NPN (dissociation constant of 1-NPN)
Method: as §1

| SMILES | Ki (EparOBP2 [1]) [µM] | IC50 (EparOBP2 [1]) [µM] | attraction effects on rubber bark beetles (rubber bark beetles) | attraction effect on E. parallelus (E. parallelus) | Kd (EparOBP2 [2]) [µM] |
| --- | --- | --- | --- | --- | --- |
| C=CC(C)(C)O [2-Methyl-3-buten-2-ol] | 31.6 | 37.9 | attraction effects |  |  |
| CC1=CCC2CC1C2(C)C (stereo not drawn) [α-Pinene] | 15.9 | 19.1 | attraction effects |  |  |
| CC(C)(O)c1ccccc1 [2-Phenyl-2-propanol] | 23.3 | 27.9 |  | attraction effect |  |
| CCCCCCCCCCCCCC [Tetradecane] | 26 | 31.2 |  | attraction effect |  |
| C=C1C2CCC(C2)C1(C)C (stereo not shown) [Camphene] | 27.4 | 32.9 | attraction effects |  |  |
| C=C1[C@H]2CC[C@@H]3[C@H]2C(C)(C)CCC[C@]13C [(+)-Longifolene] | 41.3 | 49.6 |  | attraction effect |  |
| C=CC(=C)CCC=C(C)C [Myrcene] | 7.49 | 8.99 | attraction effects |  |  |
| C=C(C)[C@@H]1CC=C(C)CC1 [(S)-(-)-Limonene] | 33.7 | 40.4 | attraction effects |  |  |
| CC1=C[C@H](O)[C@H]2C[C@@H]1C2(C)C [S-(-)-cis-Verbenol] | 19.3 | 23.2 | attraction effects |  |  |
| c1ccc(Nc2cccc3ccccc23)cc1 [1-NPN, N-phenyl-1-naphthylamine] |  |  |  |  | 4.98 |
